Test results taken from the NIST ThermoML archive (doi:10.1016/j.jct.2005.03.002).

Conditions: 101.33 kPa, Liquid

CCOS(=O)(=O)[O-].CCn1cc[n+](C)c1 [1-ethyl-3-methylimidazolium ethyl sulfate]
Conditions	mass density [kg/m3]
278.2 K	1243
288.2 K	1236.2
298.2 K	1229.6
308.2 K	1223
318.2 K	1216.2
328.2 K	1209.9
338.2 K	1203.7
